# Entries after “also recorded” stand apart in the source; their conditions may differ.
# Legend:
# [1] = shake-flask octanol/water 1:1 (25 µL sample + 975 µL water + 1 mL octanol), vortexed, 5 min, centrifuged; NaI(Tl) counting; n = 4
# Method: Partition coefficients for ^68Ga complexes were determined by mixing 25 µL of sample with 975 µL water and 1 mL octanol (octanol: water = 1:1). Thereafter, the mixture was vortexed and incubated for 5 min, followed by centrifugation for 5 min at 3000 rpm for separation of aqueous and organic phase. NaI (Tl) counter was used to measure the activity associated with both the phases and log P value [logarithm of the activity concentration in n-Octanol / activity concentration in the aqueous layer] was calculated.
# [2] = In vitro stability of ^68Ga complexes in PBS; assay type: physicochemical; details: 1:10 dilution, 37 °C, 3 h, radio-HPLC
# in vitro = details: human, human serum
# Method: The hydrophilicity of complexes is a predictor of fast renal clearance, which is desirable for diagnostic radiopharmaceuticals.
# To assess the stability of the ^68Ga labeled peptide conjugates in PBS, 50 µL of complexes were added to 450 µL of PBS (1:10 dilution) and incubated at 37 °C for 3 h. Aliquots were taken at the end of incubation and analyzed by HPLC, as described previously. Similarly, to estimate the integrity of the ^68Ga complexes in serum, incubation was done with human serum at 1:10 dilution for 3 h at 37 °C. Samples were precipitated with 2% trichloroacetic acid (TCA), separated by centrifuging at 10,000g for 5 min, and analyzed by HPLC.
# human erythrocytes = experiment: Haemolysis assay; details: 30 min, 37 °C, result in words; for haemolysis (positive controls): human erythrocytes 4% (v/v), melittin 17 µM (50 µg/mL), triton X-100 0.1% (v/v); for haemolysis: human erythrocytes 4% (v/v) in PBS, 8, 32 and 128 µM, absorbance 540 nm, duplicates
# Method: The haemolysis assay is widely used to assess the therapeutic potential of a given AMP. AMPs that cause ruptured RBCs at their MICs naturally have low therapeutic potential.
# Fresh human blood samples were obtained from healthy donors with the approval of the institutional medical ethics committee. Erythrocytes were isolated from heparinized human blood by centrifugation at 2000g for 5 min after washing three times with PBS at 4 °C. After removing the supernatant, the cell pellet was resuspended in 2 mL of PBS, and cells were diluted at 4% (v/v) for the haemolysis experiment. […] Samples were centrifuged at 2000g for 5 min, and the absorbance of supernatants was measured at 540 nm using a polarstar omega plate reader from BMG Labtech. Erythrocytes lysed with 0.1% triton X-100 and 50 µg/mL melittin were used as positive controls. Percentage haemolysis was calculated using the formula: Haemolysis (%) = (ASAMPLE − ANG)/(APC − ANG) × 100[ASAMPLE = Absorbance recorded for samples at 540 nm, ANG = Absorbance recorded for untreated (negative control) erythrocytes at 540 nm, APC = Absorbance recorded for Melittin treated (positive control) erythrocytes at 540 nm]. One-way ANOVA was used to establish the presence of significant groups, and Tukey’s test was subsequently utilized to conduct the comparison of means.
# HEK 293 cells = experiment: Cell cytotoxicity (MTT) assay; details: HEK 293, MTT, 24 h, result in words
# Method: Human embryonic kidney (HEK 293) cells were maintained in DMEM supplemented with 10% FBS and 1% antibiotic-antimycotic solution at 37 °C, 5% CO2 in humidified atmosphere.
# Cell cytotoxicity was measured by performing 3-(4,5-dimethylthiazol-2-yl)-2,5-diphenyltetrazolium bromide) (MTT) assay. Briefly, 2000 cells/100 µL were seeded in a 96-well plate and kept overnight in incubator at 37 °C, 5% CO2. […] Melittin (17 µM) was used as a positive control for cytotoxicity assay. Following incubation, 10 µL of MTT was added to each well and after 3 h the supernatant was removed and 100 µL of dimethyl sulfoxide (DMSO) was added. After 1 h incubation, the absorbance was recorded at 570 nm. One-way ANOVA was used to establish the presence of significant groups, and Tukey’s test was subsequently utilized to conduct the comparison of means.
# S. aureus membrane = experiment: Membrane depolarization, DiOC2(3), flow cytometry; assay type: cell-based; details: 5 µM CCCP; DiOC2(3) 30 µM; result in words
# Excerpt: AMPs are reported to destroy bacterial cells by permeabilizing the membrane, followed by depolarization (Mitra et al. [2020]; Bhatt Mitra et al. [2020]). To explore if UBI-APBA utilized this strategy to adversely affect the survival of S. aureus, depolarization and permeabilization of S. aureus membrane was studied by flow cytometry. […] Furthermore, we investigated the permeabilization of the S. aureus membrane by assessing propidium iodide uptake (PI).
# For the permeabilization study, peptide-treated cells were washed with saline followed by staining with DNA stain, propidium iodide (PI) at a final concentration of 45 µM (30 min at 37 °C and 120 rpm). Isopropanol treated cells were used as positive control. The % permeabilization was calculated after normalizing the values with respect to the untreated (0% permeabilization) and isopropanol treated cells (100% permeabilization).
# Positive control for membrane depolarization studies was prepared by incubating bacteria under similar conditions with 5 µM CCCP.
# S. aureus, ATCC 25,923 [3] = experiment: MIC by resazurin (alamar blue) reduction, broth dilution; assay type: cell-based; details: for growth inhibitory (bacteriostatic) / bactericidal effect on S. aureus: MIC and MBC assays, result in words
# Method: (§1) The MICs were determined as the lowest concentration at which the conversion of the resazurin dye from blue to pink was absent. Conversely, the minimum bactericidal concentrations (MBC) were determined using the spot assay shown in Fig. 3a, where the absence of a bacterial lawn indicated the minimum required concentration for bacterial killing. […] Although UBI has been previously reported as bactericidal against S. aureus, the experimental conditions and strain utilized were different (Brouwer et al. [2006]).
# A single colony of S. aureus, ATCC 25,923 (Microbiologics) was inoculated in Mueller Hinton broth (MHB) and incubated overnight at 120 rpm (revolutions per minute) and 37 °C. The experiment was carried out in a 96-microtiter plate using a broth dilution assay wherein all the peptides (ABI scientific) were diluted two-fold in each step-in media (M9 supplemented with 0.01% Tryptone). Cells were washed twice with media and diluted to a final concentration of 10^5 colony forming units (CFU) at each well. The final volume in each well was 200 µL. […] After 24 h, 30 µL of 0.75 mg/mL of resazurin dye (HiMedia Labs) was added in each of the wells and kept for incubation overnight at 37 °C with mild shaking. The next day, the 96 well plates as well as MHB-agar plates, were observed, and results were recorded. The experiment was carried out in triplicates. As mentioned earlier, S. aureus was cultured and washed with media to carry out a time-kill assay. Experiments were performed in microfuge tubes. ~10^6 cells were incubated with minimum inhibitory concentration (MIC) of UBI-APBA (2 µM) at a final volume of 500 µL adjusted with M9 media. Cells and UBI were incubated in media at 37 °C at 120 rpm. 50 µL aliquots from each reaction mixture were removed at required time intervals. These aliquots were plated on the MHB agar plates and incubated at 37 °C. The following day, colonies were counted to get CFU. Surviving fractions were plotted against time. Origin graphing and analysis 6.0 Pro software was used for plotting and analysis of data.
# S. aureus = details: different experimental conditions and strain; ref Brouwer et al. [2006]; cited from earlier work
# Method: The MICs were determined as the lowest concentration at which the conversion of the resazurin dye from blue to pink was absent. Conversely, the minimum bactericidal concentrations (MBC) were determined using the spot assay shown in Fig. 3a, where the absence of a bacterial lawn indicated the minimum required concent ...
# S. aureus, ATCC 25,923 [4] = experiment: MBC by spot assay on MHB-agar; assay type: cell-based; details: 5 µL aliquots from MIC wells spotted on MHB-agar, overnight 37 °C, absence of bacterial lawn, triplicates
# Method: as §1
# A single colony of S. aureus, ATCC 25,923 (Microbiologics) was inoculated in Mueller Hinton broth (MHB) and incubated overnight at 120 rpm (revolutions per minute) and 37 °C. The experiment was carried out in a 96-microtiter plate using a broth dilution assay wherein all the peptides (ABI scientific) were diluted two-fold in each step-in media (M9 supplemented with 0.01% Tryptone). Cells were washed twice with media and diluted to a final concentration of 10^5 colony forming units (CFU) at each well. The final volume in each well was 200 µL. […] After 24 h, 30 µL of 0.75 mg/mL of resazurin dye (HiMedia Labs) was added in each of the wells and kept for incubation overnight at 37 °C with mild shaking. The next day, the 96 well plates as well as MHB-agar plates, were observed, and results were recorded. […] The following day, colonies were counted to get CFU. […]
compound,measurement,setting,value
"CSCC[C@H](NC(=O)[C@H](CCCNC(=N)N)NC(=O)[C@H](CCCNC(=N)N)NC(=O)[C@H](CCCCN)NC(=O)[C@H](C)NC(=O)[C@H](CCCNC(=N)N)NC(=O)CNC(=O)[C@@H](NC(=O)CCC(C(=O)O)N1CCN(CC(=O)O)CCN(CC(=O)O)CC1)[C@@H](C)O)C(=O)N[C@@H](CCC(N)=O)C(=O)N[C@@H](Cc1ccc(O)cc1)C(=O)N[C@@H](CC(N)=O)C(=O)N[C@@H](CCCNC(=N)N)C(=O)N[C@@H](CCCNC(=N)N)C(=O)NCC(=O)N[C@@H](CS)C(N)=O (stereo partly shown) [[^68Ga]Ga-UBI, metal not drawn]","Partition coefficient, Log P",[1],-3.8 ± 0.15
same,RCP after incubation in PBS,[2],99%
same,remaining at 3 h,in vitro,97%
triton X-100,haemolysis (positive controls),human erythrocytes,induced haemolysis
CSCC[C@H](NC(=O)[C@H](CCCNC(=N)N)NC(=O)[C@H](CCCNC(=N)N)NC(=O)[C@H](CCCCN)NC(=O)[C@H](C)NC(=O)[C@H](CCCNC(=N)N)NC(=O)CNC(=O)[C@@H](N)[C@@H](C)O)C(=O)N[C@@H](CCC(N)=O)C(=O)N[C@@H](Cc1ccc(O)cc1)C(=O)N[C@@H](CC(N)=O)C(=O)N[C@@H](CCCNC(=N)N)C(=O)N[C@@H](CCCNC(=N)N)C(=O)NCC(=O)N[C@@H](CSCCCNC(=O)COc1ccc(C(C)=O)c(B(O)O)c1)C(N)=O [UBI-APBA],haemolysis,human erythrocytes,neither hemolytic nor cytotoxic
same,cell cytotoxicity,"HEK 293 cells; 128 µM (64 × MIC of UBI-APBA), n = 3",minimal cytotoxicity; also recorded: neither hemolytic nor cytotoxic
"CSCC[C@H](NC(=O)[C@H](CCCNC(=N)N)NC(=O)[C@H](CCCNC(=N)N)NC(=O)[C@H](CCCCN)NC(=O)[C@H](C)NC(=O)[C@H](CCCNC(=N)N)NC(=O)CNC(=O)[C@@H](NC(=O)CCC(C(=O)O)N1CCN(CC(=O)O)CCN(CC(=O)O)CC1)[C@@H](C)O)C(=O)N[C@@H](CCC(N)=O)C(=O)N[C@@H](Cc1ccc(O)cc1)C(=O)N[C@@H](CC(N)=O)C(=O)N[C@@H](CCCNC(=N)N)C(=O)N[C@@H](CCCNC(=N)N)C(=O)NCC(=O)N[C@@H](CSCCCNC(=O)COc1ccc(C(C)=O)c(B(O)O)c1)C(N)=O (stereo partly shown) [[^68Ga]Ga-UBI-APBA, metal not drawn]",remaining at 3 h,in vitro,91%
"N#CC(C#N)=NNc1cccc(Cl)c1 [CCCP, Carbonyl cyanide m-chlorophenyl hydrazone]",depolarization of bacterial membrane (positive control),S. aureus membrane,low red to green fluorescence intensity ratio
CSCC[C@H](NC(=O)[C@H](CCCNC(=N)N)NC(=O)[C@H](CCCNC(=N)N)NC(=O)[C@H](CCCCN)NC(=O)[C@H](C)NC(=O)[C@H](CCCNC(=N)N)NC(=O)CNC(=O)[C@@H](N)[C@@H](C)O)C(=O)N[C@@H](CCC(N)=O)C(=O)N[C@@H](Cc1ccc(O)cc1)C(=O)N[C@@H](CC(N)=O)C(=O)N[C@@H](CCCNC(=N)N)C(=O)N[C@@H](CCCNC(=N)N)C(=O)NCC(=O)N[C@@H](CS)C(N)=O [UBI],growth inhibitory (bacteriostatic) / bactericidal effect on S. aureus,"S. aureus, ATCC 25,923 [3]",no such effect
same,haemolysis,human erythrocytes,neither hemolytic nor cytotoxic
same,activity against S. aureus as previously reported,S. aureus,bactericidal
Acetyl-cysteine-2-acetyl boronic acid [AcCys-2-APBA],growth inhibitory (bacteriostatic) / bactericidal effect on S. aureus,"S. aureus, ATCC 25,923 [3]",no such effect
same,MIC,"S. aureus, ATCC 25,923 [3]; S. aureus ATCC 25,923, two-fold broth dilution in M9 + 0.01% Tryptone, 10^5 CFU per well, 200 µL, resazurin added after 24 h, overnight 37 °C, lowest concentration without blue-to-pink conversion, visual, triplicates",> 32 µM
same,MBC,"S. aureus, ATCC 25,923 [4]",> 32 µM
melittin,haemolysis (positive controls),human erythrocytes,induced haemolysis
same,cell cytotoxicity (positive control),HEK 293 cells; melittin 17 µM,cytotoxic

# Reference: publication PMC10965847, “Expanding a peptide-covalent probe hybrid for PET imaging of S. aureus driven focal infections” (EJNMMI Radiopharmacy and Chemistry, 2024)
